The target in this test is T1, human CB2R (Homo sapiens, UniProt P34972).
T1 construct: host or cells: CHO cells
The test is described as follows: CB2R mediated modulation of cAMP synthesis. The format is cell-based. Particulars: qualitative statement; found 'through the use of the above described assays'; CHO cells expressing human CB2R, forskolin-stimulated cAMP. As for the experimental part: B. CB2R Mediated Modulation of cAMP Synthesis:
CHO cells expressing human CB2R (Euroscreen) were plated at a density of 5000 cells per well in 384 well plates and incubated overnight at 37° C. After removing the media, the cells were treated with test compounds diluted in stimulation buffer containing 1 mM IBMX, 0.25% BSA and 10 uM Forskolin. The assay was incubated for 30 minutes at 37° C. Cells were lysed and the cAMP concentration was measured using DiscoverX-XS cAMP kit, following the manufacturer's protocol. In this setting, agonists will decrease forskolin induced production of cAMP while inverse agonists will further increase forskolin induced production of cAMP. EC50 of agonists were calculated as follows. The maximal amount of cAMP produced by forskolin compared to the level of cAMP inhibited by 1 uM CP55940 is defined as 100%. The EC50 value of each test compound was determined as the concentration at which 50% of the forskolin-stimulated cAMP synthesis was inhibited. Data was analyzed using a four-parameter logistic model. (Model 205 of XLfit 4.0).

Molecules are shown by their SMILES.

T1 sequence (P34972 whole entry): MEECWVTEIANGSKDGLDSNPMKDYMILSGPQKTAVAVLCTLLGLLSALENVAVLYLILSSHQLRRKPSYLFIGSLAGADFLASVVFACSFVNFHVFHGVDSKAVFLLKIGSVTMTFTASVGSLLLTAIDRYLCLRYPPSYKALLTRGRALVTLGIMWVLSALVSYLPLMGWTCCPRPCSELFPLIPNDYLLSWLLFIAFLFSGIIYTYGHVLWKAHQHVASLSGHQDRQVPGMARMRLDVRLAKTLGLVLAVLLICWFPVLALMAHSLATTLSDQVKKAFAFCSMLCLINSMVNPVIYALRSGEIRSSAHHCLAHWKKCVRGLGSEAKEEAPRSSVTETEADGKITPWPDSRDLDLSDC

As to `Cc1ccc(C)c(Nc2ccc(CN(C)CC(O)c3ccccc3)cc2)c1` (centres unmarked) [Example 1, 2-{[4-(2,5-Dimethyl-phenylamino)-benzyl]-methyl-amino}-1-phenyl-ethanol], the agonistic activity result was “agonistic activity”.
As for `CN(Cc1cnc2ccccc2c1)C[C@H](O)c1ccccc1` [Example 20, (R)-2-(Methyl-quinolin-3-ylmethyl-amino)-1-phenyl-ethanol], the agonistic activity result is given as “agonistic activity”.
The result for `CN(Cc1ccc(Nc2ccccc2Cl)cc1)C[C@H](O)c1ccccc1` [Example 5, (R)-2-{[4-(2-chloro-phenylamino)-benzyl]-methyl-amino}-1-phenyl-ethanol] reads “agonistic activity”.
As for `CN(Cc1ccc(Oc2ccccc2)cc1)C[C@H](O)c1ccccc1` [Example 19, (R)-2-[Methyl-(4-phenoxy-benzyl)-amino]-1-phenyl-ethanol], the entry is “agonistic activity”; as for `CN(Cc1ccc(S(=O)(=O)c2ccccc2)cc1)C[C@H](O)c1ccccc1` [Example 17, (R)-2-[(4-Benzenesulfonyl-benzyl)-methyl-amino]-1-phenyl-ethanol], “agonistic activity”; as for `CN(Cc1ccc(Nc2ccccc2)cc1)CC(O)c1ccccc1` (centres unmarked) [Example 2, 2-[methyl-(4-phenylamino-benzyl)-amino]-1-phenyl-ethanol], “agonistic activity”.
For the compound `Cc1ccc(C)c(Nc2ccc(CN(C)CC(O)c3ccccc3)cn2)c1` (centres unmarked) [Example 7, 2-{[6-(2,5-dimethyl-phenylamino)-pyridin-3-ylmethyl]-methyl-amino}-1-phenyl-ethanol], the agonistic activity result is given as “agonistic activity”.
For `CN(Cc1ccc(Nc2ccccc2Cl)cc1)CC(O)c1ccccc1` (centres unmarked) [Example 4, 2-{[4-(2-chloro-phenylamino)-benzyl]-methyl-amino}-1-phenyl-ethanol], the agonistic activity entry is “agonistic activity”.
Turning to `Cc1ccc(Cl)cc1Nc1ccc(CN(C)CC(O)c2ccccc2)cn1` (centres unmarked) [Example 9, 2-{[6-(5-chloro-2-methyl-phenylamino)-pyridin-3-ylmethyl]-methyl-amino}-1-phenyl-ethanol], the agonistic activity entry is “agonistic activity”.
The result for `Cc1ccc(Cl)c(Nc2ccc(CN(C)CC(O)c3ccccc3)cn2)c1` (centres unmarked) [Example 8, 2-{[6-(2-chloro-5-methyl-phenylamino)-pyridin-3-ylmethyl]-methyl-amino}-1-phenyl-ethanol] reads “agonistic activity”; that for `Cc1ccccc1Nc1ccc(CN(C)CC(O)c2ccccc2)cn1` (centres unmarked) [Example 11, 2-[methyl-(6-o-tolylamino-pyridin-3-ylmethyl)-amino]-1-phenyl-ethanol], “agonistic activity”; that for `CN(Cc1ccc(Nc2ccccc2)cc1)C[C@H](O)c1ccccc1` [Example 15, (R)-2-[Methyl-(4-phenylamino-benzyl)-amino]-1-phenyl-ethanol], “agonistic activity”.
Consider `CN(Cc1ccc(Nc2ccccc2Cl)nc1)CC(O)c1ccccc1` (centres unmarked) [Example 10, 2-{[6-(2-chloro-phenylamino)-pyridin-3-ylmethyl]-methyl-amino}-1-phenyl-ethanol], for which the agonistic activity entry was “agonistic activity”.
The result for `CN(Cc1ccc(Oc2ccccc2)nc1)C[C@@H](O)c1ccccc1` [Example 21, (S)-2-[Methyl-(6-phenoxy-pyridin-3-ylmethyl)-amino]-1-phenyl-ethanol] reads “agonistic activity”; that for `Cc1ccccc1Nc1ccc(CN(C)CC(O)c2ccccc2)cc1` (centres unmarked) [Example 6, 2-[methyl-4(o-tolylamino-benzyl)-amino]-1-phenyl-ethanol], “agonistic activity”; that for `Cc1ccc(Cl)c(Nc2ccc(CN(C)CC(O)c3ccccc3)cc2)c1` (centres unmarked) [Example 3, 2-{[4-(2-chloro-5-methyl-phenylamino)-benzyl]-methyl-amino}-1-phenyl-ethanol], “agonistic activity”.
Regarding `O[C@H](CNCc1cnc2ccccc2c1)c1ccccc1` [Example 22, (S)-1-Phenyl-2-[(quinolin-3-ylmethyl)-amino]-ethanol], the agonistic activity result is reported as “agonistic activity”.

Values taken from patent US20090275611A1, “Compounds Which Modulate The CB2 Receptor” (BOEHRINGER INGELHEIM INTERNATIONAL GMBH, priority 2006, published 2009).
